Measurements reported in PubChem BioAssay AID344 (DTP/NCI, 2004).
Several values for one entry are separate records, joined by “and”; a condition that tells them apart may be missing. Equal values may be shown once. Inconclusive results and toxic doses are left out.

Tested on: mice, LPC-1 plasma cell tumor ip, median survival T/C
Assay: NCI In Vivo Anticancer Drug Screen. Data for tumor model Lieberman Plasma Cell No. 1 (LPC-1) (intraperitoneal) in unknown mice
Conditions: endpoint: median survival time, higher = longer survival
Experimental: The antitumor activity of compounds was measured in mice bearing transplantable tumors. Survival or tumor size were measured and the results are expressed as the measurement made in the treated group (T) divided by the measurement made in the vehicle treated control group (C). The tumor model used in this assay is Lieberman Plasma Cell No. 1 (LPC-1) (intraperitoneal) in unknown mice

[1] = dose: 33.0 mg/kg/injection, schedule: Q01DX028 (sc), vehicle: carboxymethylcellulose (CMC)
[2] = dose: 75.0 mg/kg/injection, schedule: Q01DX028 (sc), vehicle: carboxymethylcellulose (CMC)

NC(=O)c1ccc(N)nc1 was tested. Which T/C (dose: 0.16 mg/kg/injection, schedule: Q01DX028 (sc), vehicle: water) did it give?
Its T/C is 100 % of control.

And the T/C (dose: 0.32 mg/kg/injection, schedule: Q01DX028 (sc), vehicle: water)?
The T/C was 97 % of control.

What about the T/C (dose: 0.65 mg/kg/injection, schedule: Q01DX028 (sc), vehicle: water) of the same molecule?
The T/C was 95 % of control.

And the T/C (dose: 1.25 mg/kg/injection, schedule: Q01DX028 (sc), vehicle: water)?
Its T/C is 97 % of control.

And the T/C (dose: 2.5 mg/kg/injection, schedule: Q01DX028 (sc), vehicle: water)?
The T/C was 100 % of control.

What about the T/C (dose: 5.0 mg/kg/injection, schedule: Q01DX028 (sc), vehicle: water) of the same molecule?
Its T/C is 107 % of control.

With CS(=O)(=O)OCCCCOS(C)(=O)=O as the molecule, how does the T/C (dose: 1.25 mg/kg/injection, schedule: Q01DX028 (sc), vehicle: carboxymethylcellulose (CMC)) read?
Its T/C is 92 % of control.

And the T/C (dose: 2.5 mg/kg/injection, schedule: Q01DX028 (sc), vehicle: carboxymethylcellulose (CMC))?
Its T/C is 102 % of control.

And the T/C (dose: 5.0 mg/kg/injection, schedule: Q01DX028 (sc), vehicle: carboxymethylcellulose (CMC))?
Its T/C is 102 % of control.

What about the T/C (dose: 10.0 mg/kg/injection, schedule: Q01DX028 (sc), vehicle: carboxymethylcellulose (CMC)) of the same molecule?
Its T/C is 123 % of control.

With CN[C@H]1CCc2cc(OC)c(OC)c(OC)c2-c2ccc(OC)c(=O)cc21 as the molecule, how does the T/C (dose: 0.62 mg/kg/injection, schedule: Q01DX015 (sc), vehicle: saline) read?
Its T/C is 102 % of control.

And the T/C (dose: 1.25 mg/kg/injection, schedule: Q01DX015 (sc), vehicle: saline)?
Its T/C is 102 % of control.

What about the T/C (dose: 1.25 mg/kg/injection, schedule: Q01DX028 (sc), vehicle: saline) of the same molecule?
Its T/C is 107 % of control.

What about the T/C (dose: 2.5 mg/kg/injection, schedule: Q01DX028 (sc), vehicle: saline) of the same molecule?
Its T/C is 107 % of control.

Which T/C (dose: 25.0 mg/kg/injection, schedule: Q01DX028 (sc), vehicle: steriod suspending solution) does the source give for CC(=O)O[C@]1(C(C)=O)CC[C@H]2[C@@H]3C[C@H](C)C4=CC(=O)C=C[C@]4(C)[C@@]3(F)[C@@H](O)C[C@@]21C here?
Its T/C is 100 % of control.

What about the T/C (dose: 50.0 mg/kg/injection, schedule: Q01DX028 (sc), vehicle: steriod suspending solution) of the same molecule?
Its T/C is 97 % of control.

What about the T/C (dose: 75.0 mg/kg/injection, schedule: Q01DX028 (sc), vehicle: steriod suspending solution) of the same molecule?
The T/C was 91 % of control.

And the T/C (dose: 100.0 mg/kg/injection, schedule: Q01DX028 (sc), vehicle: steriod suspending solution)?
The T/C was 97 % of control.

With CS(=O)(=O)OCCN(CCOS(C)(=O)=O)c1ccccc1 as the molecule, how does the T/C (dose: 3.12 mg/kg/injection, schedule: Q01DX028 (sc), vehicle: carboxymethylcellulose (CMC)) read?
Its T/C is 113 % of control.

And the T/C (dose: 6.25 mg/kg/injection, schedule: Q01DX028 (sc), vehicle: carboxymethylcellulose (CMC))?
Its T/C is 161 % of control.

What about the T/C (dose: 12.5 mg/kg/injection, schedule: Q01DX028 (sc), vehicle: carboxymethylcellulose (CMC)) of the same molecule?
Its T/C is 155 % of control.

What about the T/C (dose: 15.0 mg/kg/injection, schedule: Q01DX028 (sc), vehicle: carboxymethylcellulose (CMC)) of the same molecule?
Its T/C is 184 % of control.

What about the T/C (dose: 22.0 mg/kg/injection, schedule: Q01DX028 (sc), vehicle: carboxymethylcellulose (CMC)) of the same molecule?
The T/C was 194 % of control.

What about the T/C (dose: 25.0 mg/kg/injection, schedule: Q01DX028 (sc), vehicle: carboxymethylcellulose (CMC)) of the same molecule?
Its T/C is 105 % of control.

What about the T/C [1] of the same molecule?
The T/C was 110 % of control.

Cn1c2ccccc2c(=O)c2c(O)cc3c(c21)C=C(Br)C(C)(C)O3 was tested. Which T/C (dose: 9.38 mg/kg/injection, schedule: Q01DX028 (sc), vehicle: carboxymethylcellulose (CMC)) did it give?
The T/C was 97 % of control.

What about the T/C (dose: 18.75 mg/kg/injection, schedule: Q01DX028 (sc), vehicle: carboxymethylcellulose (CMC)) of the same molecule?
The T/C was 97 % of control.

What about the T/C (dose: 37.5 mg/kg/injection, schedule: Q01DX028 (sc), vehicle: carboxymethylcellulose (CMC)) of the same molecule?
The T/C was 107 % of control.

And the T/C [2]?
The T/C was 97 % of control.

And the T/C (dose: 150.0 mg/kg/injection, schedule: Q01DX028 (sc), vehicle: carboxymethylcellulose (CMC))?
The T/C was 95 % of control.

For CS(=O)(=O)OCCN(CCOS(C)(=O)=O)c1ccc(/C=N/Nc2ncnc3nc[nH]c23)cc1, which T/C (dose: 5.0 mg/kg/injection, schedule: Q03HX056 (sc), vehicle: other) is on record?
The T/C was 111 % of control.

What about the T/C (dose: 8.0 mg/kg/injection, schedule: Q01DX028 (sc), vehicle: carboxymethylcellulose (CMC)) of the same molecule?
The T/C was 186 % of control.

What about the T/C (dose: 10.0 mg/kg/injection, schedule: Q03HX008 (sc), vehicle: other) of the same molecule?
Its T/C is 100 % of control.

And the T/C (dose: 10.0 mg/kg/injection, schedule: Q03HX056 (sc), vehicle: other)?
Its T/C is 116 % of control.

What about the T/C (dose: 20.0 mg/kg/injection, schedule: Q03HX008 (sc), vehicle: other) of the same molecule?
The T/C was 102 % of control.

What about the T/C (dose: 20.0 mg/kg/injection, schedule: Q03HX056 (sc), vehicle: other) of the same molecule?
The T/C was 150 % of control.

And the T/C (dose: 36.0 mg/kg/injection, schedule: Q01DX028 (sc), vehicle: carboxymethylcellulose (CMC))?
The T/C was 171 % of control.

And the T/C (dose: 40.0 mg/kg/injection, schedule: Q03HX008 (sc), vehicle: other)?
The T/C was 116 % of control.

What about the T/C (dose: 55.0 mg/kg/injection, schedule: Q01DX028 (sc), vehicle: carboxymethylcellulose (CMC)) of the same molecule?
The T/C was 210 % of control.

And the T/C (dose: 79.0 mg/kg/injection, schedule: Q01DX028 (sc), vehicle: other)?
The T/C was 158 % of control.

And the T/C (dose: 80.0 mg/kg/injection, schedule: Q01DX001 (sc), vehicle: other)?
The T/C was 94 % of control.

What about the T/C (dose: 80.0 mg/kg/injection, schedule: Q01DX028 (ip), vehicle: other) of the same molecule?
The T/C was 177 % of control.

What about the T/C (dose: 80.0 mg/kg/injection, schedule: Q01DX028 (sc), vehicle: carboxymethylcellulose (CMC)) of the same molecule?
The T/C was 218 % of control and 102 % of control.

What about the T/C (dose: 80.0 mg/kg/injection, schedule: Q03DX004 (sc), vehicle: other) of the same molecule?
The T/C was 111 % of control.

And the T/C (dose: 80.0 mg/kg/injection, schedule: Q03HX008 (sc), vehicle: other)?
Its T/C is 108 % of control.

And the T/C (dose: 119.0 mg/kg/injection, schedule: Q01DX028 (sc), vehicle: other)?
Its T/C is 210 % of control.

What about the T/C (dose: 120.0 mg/kg/injection, schedule: Q01DX028 (ip), vehicle: other) of the same molecule?
Its T/C is 166 % of control.

And the T/C (dose: 120.0 mg/kg/injection, schedule: Q01DX028 (oral), vehicle: other)?
The T/C was 122 % of control.

And the T/C (dose: 120.0 mg/kg/injection, schedule: Q01DX028 (sc), vehicle: carboxymethylcellulose (CMC))?
Its T/C is 175 % of control and 252 % of control.

What about the T/C (dose: 120.0 mg/kg/injection, schedule: Q01DX028 (sc), vehicle: other) of the same molecule?
The T/C was 189 % of control.

And the T/C (dose: 120.0 mg/kg/injection, schedule: Q03DX004 (sc), vehicle: other)?
The T/C was 116 % of control.

What about the T/C (dose: 160.0 mg/kg/injection, schedule: Q01DX001 (sc), vehicle: other) of the same molecule?
Its T/C is 97 % of control.

And the T/C (dose: 179.0 mg/kg/injection, schedule: Q01DX028 (sc), vehicle: other)?
Its T/C is 187 % of control.

And the T/C (dose: 180.0 mg/kg/injection, schedule: Q01DX028 (ip), vehicle: other)?
The T/C was 111 % of control.

And the T/C (dose: 180.0 mg/kg/injection, schedule: Q01DX028 (sc), vehicle: carboxymethylcellulose (CMC))?
Its T/C is 164 % of control and 238 % of control.

And the T/C (dose: 180.0 mg/kg/injection, schedule: Q01DX028 (sc), vehicle: other)?
The T/C was 166 % of control.

What about the T/C (dose: 180.0 mg/kg/injection, schedule: Q03DX004 (sc), vehicle: other) of the same molecule?
Its T/C is 116 % of control.

And the T/C (dose: 269.0 mg/kg/injection, schedule: Q01DX028 (sc), vehicle: other)?
The T/C was 166 % of control.

And the T/C (dose: 270.0 mg/kg/injection, schedule: Q01DX028 (ip), vehicle: other)?
Its T/C is 122 % of control.

What about the T/C (dose: 270.0 mg/kg/injection, schedule: Q01DX028 (oral), vehicle: other) of the same molecule?
The T/C was 119 % of control.

And the T/C (dose: 270.0 mg/kg/injection, schedule: Q01DX028 (sc), vehicle: carboxymethylcellulose (CMC))?
The T/C was 202 % of control.

And the T/C (dose: 270.0 mg/kg/injection, schedule: Q03DX004 (sc), vehicle: other)?
Its T/C is 116 % of control.

And the T/C (dose: 320.0 mg/kg/injection, schedule: Q01DX001 (sc), vehicle: other)?
The T/C was 105 % of control.

And the T/C (dose: 640.0 mg/kg/injection, schedule: Q01DX001 (sc), vehicle: other)?
The T/C was 105 % of control.

For CS(=O)(=O)OCCCCCOS(C)(=O)=O, which T/C (dose: 10.0 mg/kg/injection, schedule: Q01DX028 (sc), vehicle: water) is on record?
The T/C was 107 % of control.

And the T/C (dose: 40.0 mg/kg/injection, schedule: Q01DX028 (sc), vehicle: water)?
The T/C was 107 % of control.

What about the T/C (dose: 44.0 mg/kg/injection, schedule: Q01DX028 (sc), vehicle: carboxymethylcellulose (CMC)) of the same molecule?
The T/C was 120 % of control.

With COC12C(COC(N)=O)C3=C(C(=O)C(C)=C(N)C3=O)N1CC1C2N1C (stereo unspecified) as the molecule, how does the T/C (dose: 0.7 mg/kg/injection, schedule: Q01DX028 (sc), vehicle: saline) read?
Its T/C is 124 % of control.

What about the T/C (dose: 2.0 mg/kg/injection, schedule: Q01DX028 (sc), vehicle: saline) of the same molecule?
The T/C was 178 % of control.

What about the T/C (dose: 3.0 mg/kg/injection, schedule: Q01DX028 (sc), vehicle: saline) of the same molecule?
The T/C was 156 % of control.

Which T/C [1] does the source give for O=NN(CCCl)C(=O)NC1CCCCC1 here?
Its T/C is 111 % of control.

And the T/C [2]?
The T/C was 102 % of control.

CC1(C)CC2(CC(C)(C)Oc3cc(O)ccc32)c2ccc(O)cc2O1 was tested. Which T/C (dose: 50.0 mg/kg/injection, schedule: Q01DX008 (sc), vehicle: saline) did it give?
Its T/C is 100 % of control.

And the T/C (dose: 100.0 mg/kg/injection, schedule: Q01DX008 (sc), vehicle: saline)?
The T/C was 97 % of control.

What about the T/C (dose: 200.0 mg/kg/injection, schedule: Q01DX008 (sc), vehicle: saline) of the same molecule?
The T/C was 97 % of control.

And the T/C (dose: 400.0 mg/kg/injection, schedule: Q01DX008 (sc), vehicle: saline)?
The T/C was 92 % of control.
